Experimental data from patent publication US20130023563A1, “AMIDINOANILINE DERIVATIVE” (AJINOMOTO CO., INC., priority 2010, published 2013).
Structures can show the parent of a compound that is named as a salt.

Legend:
human plasma [1] = experiment: Anti-blood coagulant activity, aPTT method, Sysmex CA-1500 (Experimental Example 3-1); format: biochemical; settings: negative logarithmic value of the concentration that prolongs aPTT of the control 2 times
Description: Experimental Example 3-1 Measurement of Anti-Blood Coagulant Activity
Examples 1, 8, 9, 11, 13, 16-19 and 22 were measured according to the following method.
(§1) An aPTT measurement method using totally automatic blood coagulation time measuring apparatus Sysmex CA-1500 was used. A 10 mg/ml DDVP solution (DDVP standard product, Wako) (4 μL) and a test compound solution (20 μL) were placed in a sample tube (MS-18, Japan Medical Science), human plasma (standard human plasma for blood coagulation test, GCH-100A, Sysmex) (180 μL) was added and the mixture was used as a test sample. The test sample (50 μL) was incubated at 37° C. for 1 min, data fi APTT (rabbit brain-derived cephalin, DADE Behiring) (50 μL) was added, and the mixture was further incubated at 37° C. for 2 min. To the sample solution was added 0.02M calcium chloride (50 μL), and the time until plasma coagulation was automatically measured.
(§2) As the anti-blood coagulant activity, the negative logarithmic value of the concentration that prolongs aPTT of the control 2 times is shown as paPTT2.

FXa = FXa (Homo sapiens, UniProt P00742); experiment: Measurement of inhibitory activity against activated factor X (chromogenic substrate S-2222); format: biochemical; settings: 0.015 U/ml FXa, 0.2 mM S-2222, absorbance 405 nm; read-out: FXa (pIC50) (converted)
Sequence of FXa (P00742 235-488 limits assumed): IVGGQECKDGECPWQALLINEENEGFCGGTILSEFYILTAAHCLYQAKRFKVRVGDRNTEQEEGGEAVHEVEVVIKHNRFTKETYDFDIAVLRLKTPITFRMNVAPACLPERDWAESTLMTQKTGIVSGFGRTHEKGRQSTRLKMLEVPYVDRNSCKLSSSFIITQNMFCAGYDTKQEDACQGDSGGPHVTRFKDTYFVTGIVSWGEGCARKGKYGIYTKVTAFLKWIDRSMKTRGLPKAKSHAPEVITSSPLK
Sequence of FXa (P00742 41-179 partner limits assumed): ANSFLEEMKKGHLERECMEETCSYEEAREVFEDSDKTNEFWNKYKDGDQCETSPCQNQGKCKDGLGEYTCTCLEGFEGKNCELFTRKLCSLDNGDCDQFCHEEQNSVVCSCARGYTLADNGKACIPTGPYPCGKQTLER
Description: Experimental Example 1 Measurement of Inhibitory Activity Against Activated Factor X Activity
(§3) Using a 96-well plate (#3396, Costar), 100 mM Tris-HC1 buffer (130 μL) containing 0.02% Tween 20, 0.1% PEG6000 and 0.2M NaCl was admixed with 0.015 U/ml FXa (10 μL) and a test compound (10 μL) for 10 min and a color developing substrate 0.2 mM S-2222 (50 μL) was added. Using a microplate reader Benchmark Plus (BIO-RAD), the reaction rate was measured from the time course changes at absorbance 405 nm. Using the reaction rate of the control as 100%, the negative logarithmic value of the concentration that can suppress the reaction rate of the control by 50% was taken as the pIC50 value.

[2] = molecular target: activated factor IIa (thrombin) (Homo sapiens, UniProt P00734); experiment: Measurement of inhibitory activity against activated factor II (chromogenic substrate S-2238); format: biochemical; settings: 0.125 U/ml thrombin, 0.1 mM S-2238, absorbance 405 nm; read-out: FIIa (pIC50) (converted)
Description: Experimental Example 2 Measurement of Inhibitory Activity Against Activated Factor II (FIIa, Thrombin)
as §3, with “mM Tris-HCl” for “mM Tris-HC1”, “with 0.125” for “with 0.015”, “U/ml activated factor IIa (thrombin)” for “U/ml FXa”, “substrate 0.1” for “substrate 0.2”, “mM S-2238” for “mM S-2222”

[3] = Evaluation of stability in plasma; format: in vitro ADME; settings: human plasma, 37° C., read-out: T½
Description: Experimental Example 4 Evaluation of stability in plasma
To human plasma (495 μL) was added 5 μL from a solution of the test compound prepared to 200 μM (final drug solution concentration 2 μM), and the mixture was incubated at 37° C. At 0 min, 1 min, 2 min, 5 min and 10 min from the addition of the drug solution, 50 μL each was sampled, 0.1 mg/ml DDVP-containing acetonitrile (350 μL) was added, and the reaction was discontinued by blending them. After discontinuation of the reaction, a deproteination treatment was performed by a centrifugation operation at 15000 rpm for 5 min. The centrifugation supernatant (350 μL) was dried to solidness, concentrated, dissolved in aqueous solution (100 μL) of 20% acetonitrile and 0.1% formic acid and the mixture was subjected to the measurement by LC/MS/MS.
The half-life (T1/2) was calculated using initial 3rd-4th time points.

human plasma [4] = experiment: Anti-blood coagulant activity, aPTT method, Sysmex Cs-2000i (Experimental Example 3-2); format: biochemical; settings: negative logarithmic value of the concentration that prolongs aPTT of the control 2 times
Description: Experimental Example 3-2 Measurement of Anti-Blood Coagulant Activity
as §1, with “Cs-2000i” for “CA-1500”, “(8” for “(4”, “(40” for “(20”, “(360” for “(180”
as §2

[5] = Evaluation of stability in liver S9 fraction; format: in vitro ADME; settings: human liver S9 fraction 2 mg/mL, 2 μM, 37° C.
Description: Experimental Example 5 Evaluation of Stability in Liver S9 Fraction
Metabolism reaction mixed solution (0.1 mM EDTA-100 mM potassium phosphate buffer (pH 7.4), 2 mg/mL human liver S9 fraction, 0.5 mM oxidized nicotinamide adenine dinucleotide phosphate, 5 mM glucose-6-phosphoric acid, 1 unit/mL glucose-6-phosphate dehydrogenase) was pre-warmed at 37° C. for 5 min. After pre-warming, DMSO solution of the substrate was added such that the concentration of the final drug solution was 2 μM, and the metabolism reaction was started at 37° C. A given amount was sampled at 0 min, 5 min, 10 min and 30 min from the start of the reaction, 0.1 mg/mL dichlorvos-containing acetonitrile was added, and blended to discontinue the reaction. After discontinuation of the reaction, a deproteination treatment was performed by a centrifugation operation at 15000 rpm for 5 min. To the centrifugation supernatant was added 0.3% aqueous formic acid solution, admixed and the mixture was subjected to the measurement by LC/MS/MS. Then, as the residual ratio (%) at 30 min later, the ratio relative to the concentration at 0 min was calculated.

IC50 (FXa) [nM] | IC50 [2] [nM] | half-life at 2 μM [3] [min] | residual ratio (%) of liver S9 fraction 30 min later [5] [%] | SMILES | paPTT2 (human plasma [1]) | paPTT2 (human plasma [4])
45.7 | > 100000 | – | – | CN(CC(=O)Oc1ccc(C(=N)N2CCCC2)cc1)c1cccc(C(=N)N)c1 [compound of Ex. 1, 4-[imino(pyrrolidin-1-yl)methyl]phenyl N-{3-[amino(imino)methyl]phenyl}-N-methylglycinate 2 trifluoroacetate] | 5.48 | –
13.5 | 83200 | 4 | 57 | C[C@@H](C(=O)Oc1ccc(C(=N)N2CCCC2)cc1)N(C)c1cccc(C(=N)N)c1 [compound of Ex. 4, 4-[imino(pyrrolidin-1-yl)methyl]phenyl N-{3-[amino(imino)methyl]phenyl}-N-methyl-L-alaninate 2 trifluoroacetate] | – | 6.89
20 | 38000 | 3.7 | 64 | C[C@H](C(=O)Oc1ccc(C(=N)N2CCCC2)cc1)N(C)c1cccc(C(=N)N)c1 [compound of Ex. 5, 4-[imino(pyrrolidin-1-yl)methyl]phenyl N-{3-[amino(imino)methyl]phenyl}-N-methyl-D-alaninate 2 trifluoroacetate] | – | 6.26
282 | 25700 | – | – | N=C(N)c1cccc(N2CCC[C@H]2C(=O)Oc2ccc(C(=N)N3CCCC3)cc2)c1 [compound of Ex. 8, 4-[imino(pyrrolidin-1-yl)methyl]phenyl 1-{3-[amino(imino)methyl]phenyl}-L-prolinate 2 trifluoroacetate] | 5.66 | –
20 | 692 | – | – | N=C(N)c1cccc(N2CCC[C@@H]2C(=O)Oc2ccc(C(=N)N3CCCC3)cc2)c1 [compound of Ex. 9, 4-[imino(pyrrolidin-1-yl)methyl]phenyl 1-{3-[amino(imino)methyl]phenyl}-D-prolinate 2 trifluoroacetate] | 6.69 | –
105 | 347 | < 1 | 85 | CC(=N)N1CCC(Oc2ccc(OC(=O)[C@H]3CCCN3c3cccc(C(=N)N)c3)cc2)CC1 [compound of Ex. 11, 4-[(1-ethanimidoylpiperidin-4-yl)oxy]phenyl 1-{3-[amino(imino)methyl]phenyl}-D-prolinate 2 trifluoroacetate] | 6.25 | –
339 | 288 | 8.2 | 86 | N=C(N)c1cccc(N2C[C@H](OCc3ccccc3)C[C@H]2C(=O)Oc2ccc(C(=N)N3CCCC3)cc2)c1 [compound of Ex. 13, 4-[imino(pyrrolidin-1-yl)methyl]phenyl (4R)-1-{3-[amino(imino)methyl]phenyl}-4-(benzyloxy)-L-prolinate 2 trifluoroacetate] | 5.59 | –
15.1 | 70800 | – | – | N=C(N)c1cccc(N2CCCC[C@H]2C(=O)Oc2ccc(C(=N)N3CCCC3)cc2)c1 [compound of Ex. 16, 4-[imino(pyrrolidin-1-yl)methyl]phenyl (2S)-1-{3-[amino(imino)methyl]phenyl}piperidine-2-carboxylate 2 trifluoroacetate] | 6.85 | –
40.7 | 53700 | – | – | CC(=N)N1CCC(Oc2ccc(OC(=O)[C@@H]3CCCCN3c3cccc(C(=N)N)c3)cc2)CC1 [compound of Ex. 17, 4-[(1-ethanimidoylpiperidin-4-yl)oxy]phenyl (2S)-1-{3-[amino(imino)methyl]phenyl}piperidine-2-carboxylate 2 trifluoroacetate] | 6.33 | –
4.57 | 2950 | – | – | N=C(N)c1cccc(N2CCCC[C@@H]2C(=O)Oc2ccc(C(=N)N3CCCC3)cc2)c1 [compound of Ex. 18, 4-[imino(pyrrolidin-1-yl)methyl]phenyl (2R)-1-{3-[amino(imino)methyl]phenyl}piperidine-2-carboxylate 2 trifluoroacetate] | 6.64 | –
7.76 | 3390 | – | – | CC(=N)N1CCC(Oc2ccc(OC(=O)[C@H]3CCCCN3c3cccc(C(=N)N)c3)cc2)CC1 [compound of Ex. 19, 4-[(1-ethanimidoylpiperidin-4-yl)oxy]phenyl (2R)-1-{(3-[amino(imino)methyl]phenyl}piperidine-2-carboxylate 2 trifluoroacetate] | 6.89 | –
398 | > 100000 | < 1 | 80 | N=C(N)c1cccc(N2CCC[C@H]2COC(=O)c2ccc(C(=N)N3CCCC3)cc2)c1 [compound of Ex. 22, ((2S)-1-{3-[amino(imino)methyl]phenyl}pyrrolidin-2-yl)methyl 4-[imino(pyrrolidin-1-yl)methyl]benzoate 2 trifluoroacetate] | 6.03 | –
– | – | 0.2 | 76 | N=C(N)c1cccc(N2CCC[C@@H]2COC(=O)c2ccc(C(=N)N3CCCC3)cc2)c1 [compound of Ex. 23, ((2R)-1-{3-[amino(imino)methyl]phenyl}pyrrolidin-2-yl)methyl 4-[imino(pyrrolidin-1-yl)methyl]benzoate 2 trifluoroacetate] | – | –
– | – | 0.5 | 92 | CC(=N)N1CCC(Oc2ccc(C(=O)OC[C@@H]3CCCN3c3cccc(C(=N)N)c3)cc2)CC1 [compound of Ex. 24, ((2S)-1-{3-[amino(imino)methyl]phenyl}pyrrolidin-2-yl)methyl 4-[(1-ethanimidoylpiperidin-4-yl)oxy]benzoate 2 trifluoroacetate] | – | –
18.2 | > 100000 | – | – | N=C(N)c1cccc(N2CCCC[C@@H]2C(=O)Oc2ccc(C(=N)N3CCCC3)cc2C(=O)O)c1 [compound of Ex. 52, 2-{[((2R)-1-{3-[amino(imino)methyl]phenyl}piperidin-2-yl)carbonyl]oxy}-5-[imino(pyrrolidin-1-yl)methyl]benzoic acid 2 trifluoroacetate] | – | 6.35
